Data as given in the supplement of paper PMC11451515.

Experiments:
Assay in all cases: AUC of viability dose-response curve (% viability x log10 dose units); higher = less sensitive
Settings in all cases: 48 h
NOMO1 = tested on: NOMO1
How it was run: (§1)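 Leukemia cells adapted to each medium (500 or 1000 cells/well, 1536-well plates) were exposed to library compounds in DMSO for 48 h at 37°C at 11 threefold doses, 47 μM to 0.79 nM. Luminescence by CellTiter-Glo One was normalised per plate to DMSO and cell-free wells, then fitted with a four-parameter log-logistic curve on log10 dose. Curves above full viability were scaled and quality-control failures removed before area under the curve was integrated by trapezoidal rule.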

P12-Ichikawa = tested on: P12-Ichikawa
How it was run: as §1

SEM cells = tested on: SEM cells
How it was run: as §1

[1] = RPMI 5 mM glucose + 10% dialyzed FBS

Compound | AUC of viability dose-response curve (NOMO1; HPLM + 10% dialyzed FBS) | AUC of viability dose-response curve (NOMO1; RPMI 5 mM glucose + 10% FBS) | AUC of viability dose-response curve (NOMO1; [1]) | AUC of viability dose-response curve (P12-Ichikawa; HPLM + 10% dialyzed FBS) | AUC of viability dose-response curve (P12-Ichikawa; RPMI 5 mM glucose + 10% FBS) | AUC of viability dose-response curve (P12-Ichikawa; [1]) | AUC of viability dose-response curve (SEM cells; HPLM + 10% dialyzed FBS) | AUC of viability dose-response curve (SEM cells; RPMI 5 mM glucose + 10% FBS) | AUC of viability dose-response curve (SEM cells; [1])
COc1cccc2c1C(=O)c1c(O)c3c(c(O)c1C2=O)C[C@@](O)(C(=O)CO)C[C@@H]3O[C@H]1C[C@H](N)[C@H](O)[C@H](C)O1 | 367 | 369 | 374 | 338 | 326 | 346 | 286 | 268 | 271
C[C@@H]1CCO[C@H]2CN\3/C=C(/C(=O)NCC4=C(F)C=C(F)C=C4)C(=O)\C(=C3C(=O)N12)O | 458 | 442 | 452 | 456 | 460 | 459 | 447 | 454 | 465
CCOC(=O)C(C)OC1=CC=CC2=C1\C=C/N(CC(=O)NC3=CC=C4OCCOC4=C3)C2=O (stereo unspecified) | 441 | 434 | 442 | 442 | 452 | 436 | 453 | 441 | 443
NC(=O)c1ccc(N(C(N)=O)c2c(F)cccc2F)nc1-c1ccc(F)cc1F | 472 | 447 | 429 | 476 | 468 | 449 | 412 | 454 | 411
Cc1cc2c(C(N)=O)cccc2n1-c1nc2c(c(NCc3ccccc3)n1)COCC2 | 312 | 315 | 293 | 330 | 322 | 334 | 295 | 310 | 312
COC1=CC=C(C(=C1)OC(C)C)C/2=N/[C@@H]([C@@H](N2C(=O)N3CCNC(=O)C3)C4=CC=C(Cl)C=C4)C5=CC=C(Cl)C=C5 | 409 | 439 | 434 | 404 | 427 | 413 | 279 | 250 | 253
O=P(O)(O)C(O)(Cn1ccnc1)P(=O)(O)O | 471 | 474 | 477 | 448 | 445 | 450 | 427 | 425 | 424
Nc1ncnc2c1ncn2[C@@H]1O[C@H](CO)C[C@H]1O | 439 | 420 | 445 | 442 | 439 | 430 | 426 | 445 | 416
CNCC[C@H](Oc1cccc2ccccc12)c1cccs1 | 411 | 429 | 430 | 453 | 466 | 459 | 437 | 437 | 412
